ChEMBL document CHEMBL3233012, “Synthesis, antimicrobial and cytotoxic activities of pyrimidinyl benzoxazole, benzothiazole and benzimidazole” (Eur J Med Chem, 2014)
Converted amounts (≈) assume the structure as drawn. The source made the active and inactive calls. The calls are words filed in the database; no cut-off is given here.

Columns and labels:
Penicillium chrysogenum [1] = assay: Antimicrobial activity against Penicillium chrysogenum after 24 hrs; format: functional
Penicillium chrysogenum [2] = assay: Antimicrobial activity against Penicillium chrysogenum at 50 ug/well after 48 hrs by agar well diffusion method; format: functional; details: read-out: DIZ
Staphylococcus aureus [3] = assay: Ratio of MBC to MIC for Staphylococcus aureus ATCC 25923; format: functional
Escherichia coli [4] = assay: Antimicrobial activity against Escherichia coli at 100 ug/well after 24 hrs by agar well diffusion method; format: functional; details: read-out: DIZ
Staphylococcus aureus [5] = assay: Antimicrobial activity against Staphylococcus aureus at 50 ug/well after 24 hrs by agar well diffusion method; format: functional; details: read-out: DIZ
Escherichia coli [6] = assay: Antimicrobial activity against Escherichia coli ATCC 25922 after 24 hrs by broth dilution method; format: functional; details: ATCC 25922, 24 h
Escherichia coli [7] = assay: Antimicrobial activity against Escherichia coli ATCC 25922 after 24 hrs; format: functional; details: ATCC 25922, 24 h
Aspergillus niger [8] = assay: Antimicrobial activity against Aspergillus niger at 50 ug/well after 48 hrs by agar well diffusion method; format: functional; details: read-out: DIZ
A549 = assay: Cytotoxicity against human A549 cells assessed as reduction in cell viability up to 200 uM after 20 hrs by MTT assay; format: functional, cell-based
Pseudomonas aeruginosa [9] = assay: Antimicrobial activity against Pseudomonas aeruginosa at 100 ug/well after 24 hrs by agar well diffusion method; format: functional; details: read-out: DIZ
Penicillium chrysogenum [10] = assay: Ratio of MBC to MIC for Penicillium chrysogenum; format: functional
Penicillium chrysogenum [11] = assay: Antimicrobial activity against Penicillium chrysogenum at 25 ug/well after 48 hrs by agar well diffusion method; format: functional; details: read-out: DIZ
Pseudomonas aeruginosa [12] = assay: Antimicrobial activity against Pseudomonas aeruginosa ATCC 27853 after 24 hrs; format: functional; details: ATCC 27853, 24 h
Staphylococcus aureus [13] = assay: Antimicrobial activity against Staphylococcus aureus at 25 ug/well after 24 hrs by agar well diffusion method; format: functional; details: read-out: DIZ
Pseudomonas aeruginosa [14] = assay: Antimicrobial activity against Pseudomonas aeruginosa at 50 ug/well after 24 hrs by agar well diffusion method; format: functional; details: read-out: DIZ
Penicillium chrysogenum [15] = assay: Antimicrobial activity against Penicillium chrysogenum after 24 hrs by broth dilution method; format: functional
Pseudomonas aeruginosa [16] = assay: Antimicrobial activity against Pseudomonas aeruginosa at 25 ug/well after 24 hrs by agar well diffusion method; format: functional; details: read-out: DIZ
Escherichia coli [17] = assay: Ratio of MBC to MIC for Escherichia coli ATCC 25922; format: functional
Staphylococcus aureus [18] = assay: Antimicrobial activity against Staphylococcus aureus ATCC 25923 after 24 hrs by broth dilution method; format: functional; details: ATCC 25923, 24 h
Aspergillus niger [19] = assay: Ratio of MBC to MIC for Aspergillus niger; format: functional
Aspergillus niger [20] = assay: Antimicrobial activity against Aspergillus niger at 25 ug/well after 48 hrs by agar well diffusion method; format: functional; details: read-out: DIZ
Pseudomonas aeruginosa [21] = assay: Ratio of MBC to MIC for Pseudomonas aeruginosa ATCC 27853; format: functional
Escherichia coli [22] = assay: Antimicrobial activity against Escherichia coli at 50 ug/well after 24 hrs by agar well diffusion method; format: functional; details: read-out: DIZ
Pseudomonas aeruginosa [23] = assay: Antimicrobial activity against Pseudomonas aeruginosa ATCC 27853 after 24 hrs by broth dilution method; format: functional; details: ATCC 27853, 24 h
Staphylococcus aureus [24] = assay: Antimicrobial activity against Staphylococcus aureus ATCC 25923 after 24 hrs; format: functional; details: ATCC 25923, 24 h
Penicillium chrysogenum [25] = assay: Antimicrobial activity against Penicillium chrysogenum at 100 ug/well after 48 hrs by agar well diffusion method; format: functional; details: read-out: DIZ
Escherichia coli [26] = assay: Antimicrobial activity against Escherichia coli at 25 ug/well after 24 hrs by agar well diffusion method; format: functional; details: read-out: DIZ
Staphylococcus aureus [27] = assay: Antimicrobial activity against Staphylococcus aureus at 100 ug/well after 24 hrs by agar well diffusion method; format: functional; details: read-out: DIZ
Aspergillus niger [28] = assay: Antimicrobial activity against Aspergillus niger after 24 hrs; format: functional
Aspergillus niger [29] = assay: Antimicrobial activity against Aspergillus niger after 24 hrs by broth dilution method; format: functional
Aspergillus niger [30] = assay: Antimicrobial activity against Aspergillus niger at 100 ug/well after 48 hrs by agar well diffusion method; format: functional; details: read-out: DIZ

| MIC (Escherichia coli [6]) [µg/mL] | MIC (Penicillium chrysogenum [15]) [µg/mL] | MIC (Staphylococcus aureus [18]) [µg/mL] | SMILES | MFC (Penicillium chrysogenum [1]) [µg/mL] | zone of inhibition at 50 µg/disc (Penicillium chrysogenum [2]) [mm] | Ratio (Staphylococcus aureus [3]) | zone of inhibition at 100 µg/disc (Escherichia coli [4]) [mm] | zone of inhibition at 50 µg/disc (Staphylococcus aureus [5]) [mm] | MBC (Escherichia coli [7]) [µg/mL] | zone of inhibition at 50 µg/disc (Aspergillus niger [8]) [mm] | Activity (A549) | zone of inhibition at 100 µg/disc (Pseudomonas aeruginosa [9]) [mm] | Ratio (Penicillium chrysogenum [10]) | zone of inhibition at 25 µg/disc (Penicillium chrysogenum [11]) [mm] | MBC (Pseudomonas aeruginosa [12]) [µg/mL] | zone of inhibition at 25 µg/disc (Staphylococcus aureus [13]) [mm] | zone of inhibition at 50 µg/disc (Pseudomonas aeruginosa [14]) [mm] | zone of inhibition at 25 µg/disc (Pseudomonas aeruginosa [16]) [mm] | Ratio (Escherichia coli [17]) | Ratio (Aspergillus niger [19]) | also measured |
| --- | --- | --- | --- | --- | --- | --- | --- | --- | --- | --- | --- | --- | --- | --- | --- | --- | --- | --- | --- | --- | --- |
| 100 (≈ 238 µM) | 100 (≈ 238 µM) | 50 (≈ 119 µM) | Cc1cc(SCc2nc3ccccc3o2)nc(SCc2nc3ccccc3o2)n1 | > 200 | 30 | >2 | 29 | 22 | > 200 | 22 | inactive | 22 | >2 | 28 | > 200 | 20 | 20 | 17 | >2 | >2 | zone of inhibition at 25 µg/disc (Aspergillus niger [20]): 20 mm; Ratio (Pseudomonas aeruginosa [21]): >2; zone of inhibition at 50 µg/disc (Escherichia coli [22]): 24 mm; MIC (Pseudomonas aeruginosa [23]): 100 µg/mL (≈ 238 µM); MBC (Staphylococcus aureus [24]): > 200 µg/mL; zone of inhibition at 100 µg/disc (Penicillium chrysogenum [25]): 33 mm; zone of inhibition at 25 µg/disc (Escherichia coli [26]): 21 mm; zone of inhibition at 100 µg/disc (Staphylococcus aureus [27]): 23 mm; MFC (Aspergillus niger [28]): > 200 µg/mL; MIC (Aspergillus niger [29]): 100 µg/mL (≈ 238 µM); zone of inhibition at 100 µg/disc (Aspergillus niger [30]): 24 mm |
| 100 (≈ 221 µM) | 50 (≈ 110 µM) | 50 (≈ 110 µM) | Cc1cc(SCc2nc3ccccc3s2)nc(SCc2nc3ccccc3s2)n1 | 200 (≈ 442 µM) | 32 | >2 | 30 | 23 | > 200 | 25 | inactive | 24 | >2 | 30 | 200 (≈ 442 µM) | 21 | 21 | 19 | >2 | >2 | zone of inhibition at 25 µg/disc (Aspergillus niger [20]): 24 mm; Ratio (Pseudomonas aeruginosa [21]): >2; zone of inhibition at 50 µg/disc (Escherichia coli [22]): 28 mm; MIC (Pseudomonas aeruginosa [23]): 50 µg/mL (≈ 110 µM); MBC (Staphylococcus aureus [24]): 200 µg/mL (≈ 442 µM); zone of inhibition at 100 µg/disc (Penicillium chrysogenum [25]): 35 mm; zone of inhibition at 25 µg/disc (Escherichia coli [26]): 24 mm; zone of inhibition at 100 µg/disc (Staphylococcus aureus [27]): 25 mm; MFC (Aspergillus niger [28]): > 200 µg/mL; MIC (Aspergillus niger [29]): 50 µg/mL (≈ 110 µM); zone of inhibition at 100 µg/disc (Aspergillus niger [30]): 28 mm |
